Series [1] is described as follows: Metabolite studies (radio-TLC and radio-HPLC) in A375 tumour-bearing mice. The class given is in vivo. Particulars: i.v., mean ± SD, n = 3. On the procedure:
The amount of intact ^18F-SIG343 and ^18F-SIG353 in the plasma, urine, tumour and brain cortex was quantified by thin layer chromatography (TLC) and radio-HPLC analysis. Mice were injected with 20 MBq of the radiotracer in 100 μL of saline. Mice were sacrificed 15, 60 and 120 min post injection of radiotracer. Whole organ samples of brain cortex and tumour samples (10 to 60 mg, minced) were added to unlabelled SIG343 or SIG353 (5 μL; 1 mg/mL), KF (5 μL; 1 mg/mL), MeCN (0.3 mL) and water (0.2 mL). Samples were exposed to an ultrasonic probe (Ultrasonic processor, Misonix Inc., Farmingdale, NY, USA) for 2 min before being centrifuged (5,000 rpm, 5 min). Plasma (50 μL) or urine (10 μL) samples were added to unlabelled SIG343 or SIG353, KF and 0.5 mL MeCN. Plasma samples were centrifuged (Heraeus Biofuge PrimoR, Thermo Fisher Scientific, Hudson, NH, USA; 5,000 rpm, 5 min), and the supernatant was removed and the radioactivity of the precipitated pellets was measured using a gamma counter to determine the extraction efficiency. If necessary, multiple extractions were performed to ensure maximum recovery of the radioactivity. An appropriate amount of the supernatant, based on the activity level (cpm), was collected (approximately 100 μL), diluted with water (up to 1.5 mL) for HPLC analysis or evaporated to dryness under vacuum for TLC analysis.
The TLC sample was reconstituted in methanol (25 to 50 μL) and mixed before being applied to the concentrating zone of the silica TLC plate. In a separate lane, the corresponding ^18F-labelled and ^19F-standard was also spotted. The TLC solvent systems of EtOAc/MeOH (70:30) were utilised for ^18F-SIG343 (rf 0.50) and ^18F-SIG353 (rf 0.55). The UV of the standard was identified using a UV lamp, while the movement and integration of the radioactive spots were visualised and measured using a phosphorimager (BAS 2500 Phosphorimager, Fujifilm, Tokyo, Japan) with Fujifilm Multigage 3.0 software. The intact radiotracer was identified as the radioactive spot containing the identical rf value to the corresponding ^19F-standard seen under the UV lamp. The integration of the active spot in relation to all the activity in the TLC lane gave the percentage of intact radiotracer.
Radio-HPLC analysis was performed following the method of Hilton et al.. A pre-column (Waters Oasis HLB, 25 μm, 20 × 3.9 mm) and a reversed phase HPLC column (Phenomenex Bondclone C18, 10 μm, 250 × 4.6 mm or Phenomenex Synergi Max-RP 80A C18, 4 μm, 250 × 4.6 mm) in series, with a switching valve between columns was utilised. The pre-column was washed with 1% acetonitrile in water for 3 min at 1.5 mL/min and then the solvent direction was switched to include the HPLC column. Both columns in series were then eluted over 10 min. The radioactivity peak corresponding to the authentic radiotracer was compared to the total activity registered in the radiochromatogram to give the fraction of unchanged radiotracer in the sample.

Series [2] can be described thus: PET/CT imaging studies in A375 tumour-bearing mice. The class given is in vivo. Particulars: 120-min PET scan. On the procedure:
The mouse was anaesthetised via inhalant isoflurane (Forthane, Abbott Laboratories, IL, USA) (5% induction, 1% to 3% maintenance in 200 mL/min oxygen). Respiration and heart rates of the animal were monitored (BioVet; m2m Imaging Corp, Cleveland, OH, USA) during the entire scanning period. The core body temperature of the animals was maintained via a temperature-controlled heating pad. The mouse was injected intravenously with 4.6 to 16.7 MBq of ^18F-SIG343 or ^18F-SIG353, with a constant mass of the unlabelled compounds of 0.06 nmol in 100 μL of saline (n = 3). A 120-min PET scan was performed on an Inveon multimodality positron emission tomography-computed tomography (PET/CT) system (Siemens Medical Solutions, Knoxville, TN, USA) followed by a 10-min CT scan on each subject for anatomical information. Image acquisition commenced simultaneously with radiotracer injection. The data was histogrammed into 25 consecutive frames, and activity volumes were reconstructed with an iterative reconstruction (OSEM/MAP) including attenuation and scatter correction, achieving a reconstructed spatial resolution of 1.5 mm. […] Regional activity data (Bq/cc) were extracted from nine selected volumes/regions of interest (VOIs/ROIs) where σ receptor distribution was reported and the tail and expressed as percentage of injected dose per cubic centimetres (%ID/cc).

Series [3] deals with A375 (human amelanotic melanoma) cells. Put plainly: Cell uptake inhibition studies in A375 cells with competing σ ligands. The class given is cell-based. The following applies: 15 min. On the procedure: (§1) A375 (human amelanotic melanoma) cells were purchased from American Type Culture Collection (Manassas, VA, USA) and cultured in RPMI-1640 medium (Sigma-Aldrich, St. Louis, MO, USA) supplemented with 10% foetal calf serum (Invitrogen, CA, USA) and 2 mM L-glutamine (Sigma). Cells were maintained in 175 cm^2 flasks in at 37°C in 5% CO2:95% atmosphere humidified incubator and grown to sub-confluent monolayers before being detached using trypsin for use in animal models.
Cells were prepared as described for uptake studies. Prior to the addition of the radiotracer, 400 μL of blocking drug (6.25 μmol/L in PBS) or PBS (for controls) was added to the wells. Freshly prepared radiotracer (0.37 MBq in 100 μL) was added, and the cells were incubated at 37°C for 15 min as the optimal time previously determined by the cell uptake studies. Uptake was terminated as described for uptake studies. The percentage of uptake in the treatment groups relative to the control group was determined.

Series [4] shares this test system. The series can be described thus: Cell uptake studies in A375 cells. The class given is cell-based. On the procedure:
as §1
In 24-well culture plates, 2.5 × 10^5 cells were seeded in complete medium and left to attach overnight. The following day, the number of cells per well was counted in triplicate. Before incubation with the radiotracer, the growth media was removed and the cells were washed once with warm PBS to remove all traces of growth media. ^18F-SIG343 or ^18F-SIG353 was formulated in warm PBS containing 0.1% Tween-80. Freshly prepared radiotracer (0.37 MBq in 500 μL) was added and the cells were incubated at 37°C for 2, 15, 30, 60 and 120 min. Uptake was terminated by removing the tracer solution and washing cells with ice-cold PBS. Subsequently, the cells were lysed with 500 μL of 0.2 N NaOH. The radioactivity in the cell lysate was measured with a Wallac 1480 γ-counter (PerkinElmer, MA, USA). The results were expressed as percentage of applied dose per 1 × 10^5 cells. All activities were corrected for decay. Optimal uptake time will be selected for inhibition cell uptake studies.

The mark [5] stands for this setting: declined after 60 min (up to 120 min).

Where “and” joins values, the source holds several entries; their conditions need not be identical. Equal entries are not always repeated.

Take `COc1cc2c(cc1OC)CN(CCCCN1C(=O)c3ccc([18F])cc3C1=O)CC2` [^18F-SIG343]: the “Unchanged form, Cortex” value was 87 ± 3.2% in series [1] (15 min post injection) and 83 ± 0.8% in series [1] (60 min post injection). Also, the “Unchanged form, Plasma” value in series [1] (15 min post injection) came out at 49 ± 7.5%; in series [1] (60 min post injection), 23 ± 3.8%; in series [1] (120 min post injection) it was 16 ± 2.8%. For the same compound, the “Unchanged form, Tumour” value in series [1] (15 min post injection) is recorded as 79 ± 4.6%; in series [1] (60 min post injection), 85 ± 3.1%. Moreover, the “Unchanged form, Urine” value in series [1] (15 min post injection) was 13% and 13 ± 1.2%; in series [1] (60 min post injection), 15 ± 4.3%; in series [1] (120 min post injection) it was 11 ± 5.4%. Further, the “Tumour uptake by PET imaging” value in series [2] is 0.9 %ID/cc. Further, the “Change of cell uptake of radiotracer versus control” value in series [3] (competitor (+)-pentazocine 5 μM) is recorded as “no significant blocking effect”; in series [3] (competitor haloperidol 5 μM), -72%; in series [3] (competitor unlabelled SIG343 5 μM) it was -69%. The “Cell uptake, percentage of applied dose per 1 × 10^5 cells” value in series [4] (after 2 min, 37°C) is reported as “approximately 2%”; in series [4] (between 15 and 60 min (peak/plateau)) it was 2%; in series [4] (setting [5]) it was 1.6%.
With `COc1cc2c(cc1OC)CN(CCCCCN1C(=O)c3ccc([18F])cc3C1=O)CC2` [^18F-SIG353], in series [1] (15 min post injection), the “Unchanged form, Cortex” value amounted to 85%; the “Unchanged form, Plasma” value is listed as 60 ± 3.0%; the “Unchanged form, Tumour” value is 81 ± 4.5%; the “Unchanged form, Urine” value is 5% and 5 ± 1.3%. Besides, in series [1] (60 min post injection), the “Unchanged form, Cortex” value was 87%; the “Unchanged form, Plasma” value is recorded as 27 ± 5.1%; the “Unchanged form, Tumour” value was determined as 85 ± 2.4%; the “Unchanged form, Urine” value came out at 4 ± 0.4%. Besides, in series [1] (120 min post injection), the “Unchanged form, Plasma” value is on record as 17 ± 2.9%; the “Unchanged form, Tumour” value is 65% and 65 ± 8.9%; the “Unchanged form, Urine” value was determined as 5 ± 1.2%. Besides, the “Tumour uptake by PET imaging” value in series [2] is 1.3 %ID/cc. Besides, the “Change of cell uptake of radiotracer versus control” value in series [3] (any of the competing σ ligands ((+)-pentazocine, haloperidol, unlabelled SIG353) 5 μM) is on record as “not significantly reduced”. For the same compound, the “Cell uptake, percentage of applied dose per 1 × 10^5 cells” value in series [4] (after 2 min, 37°C) was “approximately 2%”. Besides, in series [4] (setting [5]), the “Cell uptake, percentage of applied dose per 1 × 10^5 cells” value turned out to be 2.3%.

Values taken from publication PMC3878827, “Synthesis and biological characterisation of ^18F-SIG343 and ^18F-SIG353, novel and high selectivity σ2 radiotracers, for tumour imaging properties” (EJNMMI Research, 2013).
